# Measurements taken from article PMC8151848, “Tambjamines and Prodiginines: Biocidal Activity against Trypanosoma cruzi” (Pharmaceutics, 2021).
# Read-outs that look alike come from different tables or passages of the source.
# Columns and labels:
# [1] = tested on: different parasites; design: method as in PMID 32196500; conditions: cited from earlier work
# [2] = tested on: epimastigotes of T. cruzi (CL strain, clone B5); assay: Epimastigote susceptibility assay (monotherapy); format: cell-based, Trypanosoma cruzi; conditions: for IC50: Trypanosoma cruzi, CLB strain, 72 h at 28 °C, mean ± SD, read-out: IC50 (µM) in epimastigotes of T. cruzi; for activity against the extracellular and replicative forms of T. cruzi (in words): epimastigotes
# Description: The CL-B5 strain was stably transfected with the Escherichia coli β-galactosidase gene (lacZ) and routinely maintained in exponential growth by weekly passages. Trypomastigotes of the CL-B5 strain were obtained as previously reported.
# The screening assays were performed in 96-well microplates (WWR Int LLC) containing serially diluted concentrations of each compound and seeded with 2.5 × 10^5 epimastigotes/mL harvested during the exponential growth phase. Growth, medium, and drug blanks were used in each assay as controls. An internal control of the reference drug, benznidazole, was also included. After 72 h at 28 °C, 50 µL of the substrate chlorophenol red-β-D-galactopyranoside (CPRG; Roche) diluted in 0.9% Triton X-100 solution (EMD, Darmstadt, Germany) were added at a final concentration of 200 µM. Then, after 3 h at 37 °C, measurements were performed in a scanning multiwell spectrophotometer (ELISA Multiskan Reader, BioTek Instruments, Inc., Winooski, VT, USA) at 595 nm. Each concentration was tested in triplicate and the experiments were performed three times independently. The efficacy of the compounds was calculated by determining the percentage of epimastigote growth (% EG value) as follows:(1) % Epimastigote growth=(AE−AEB)/(AC−ACB)×100 where AE is the absorbance of the experimental group, AEB the absorbance of the drug blank, AC the absorbance of the control group, and ACB the absorbance of the culture medium blank. The IC50 values (the drug concentration that eliminates 50% of the parasites) were determined for each compound using the GraphPad Prism software (Version 5.0.0 for Windows, GraphPad Software, San Diego, CA, USA).
# [3] = Cytotoxicity assay (resazurin) in L-929 fibroblasts; format: cell-based, mouse; conditions: mouse, L-929 fibroblasts (NCTC clone 929); L-929, 16 µM, n = 9; read-out: % Cytotoxicity ± SD
# Source text: (§1) Mouse L-929 fibroblasts (NCTC clone 929, ECACC 88102702) were used for both drug toxicity and infection assays. Cell line was obtained from Dr. Concepció Soler, Dept. Pathology & Experimental therapeutics, Faculty of Medicine and Health Sciences, University of Barcelona, Spain. Human hepatocarcinoma Hep G2 cells (American Type Culture Collection (ATCC HB-8065)) were employed only in the drug toxicity assays and were obtained from Dr. Neus Agell, Cell Biology Research Group, Faculty of Medicine and Health Sciences, University of Barcelona, Spain.
# (§2) Cells were seeded by trypsinization in 96-well microplates (L-929: 4 × 10^3 cells/well; Hep G2: 1.5 × 10^4 cells/well) and incubated for 24 h at 37 °C to allow cell attachment. On the following day, the medium was discarded and replaced with a fresh medium containing the different concentrations of the drugs. Hep G2 cells were treated with concentrations of 100, 10, and 1 µM of the different drugs, while L-929 cells were treated with a wider range of concentrations in order to calculate the IC50 value (the drug concentration that inhibits 50% of cell growth). Medium, growth, and drug blanks were used in each test as controls. Plates were incubated again for another 24 h. After treatment, 20 µL of resazurin diluted in 1X phosphate-buffered saline (PBS; Sigma Aldrich) was added at a final concentration of 70 µM. The plates were incubated for another 24 h, after which fluorescence was measured in a microplate reader (FLUOstar OPTIMA, BMG LABTECH GmbH, Ortenberg, Germany) at an excitation wavelength of 530 nm and an emission wavelength of 590 nm. Each concentration was tested in triplicate and the experiments were repeated three times independently. Results indicated the percentage of toxicity (% T value). (3) % Toxicity=100−(AE−AEB)/(AC−ACB)×100 where AE is the absorbance of the experimental group, AEB the absorbance of the drug blank, AC the absorbance of the untreated cells, and ACB the absorbance of the culture medium blank. For the L-929 fibroblasts, the IC50 values (the drug concentration that inhibits 50% of cell growth) were calculated for each compound using the GraphPad Prism software.
# [4] = tested on: murine L-929 fibroblasts (NCTC clone 929); assay: as above; format: cell-based, mouse; conditions: Mus musculus, L929; read-out: IC50 (µM) L-929 cell growth inhibition
# Source text: as §1, §2
# [5] = POPC vesicles, ref 2 (Gianotti et al., Int. J. Mol. Sci., 2020), cited from earlier work
# [6] = tested on: Plasmodium yoelii; design: method as in PMID 26305125; conditions: murine model; cited from earlier work
# [7] = Transmembrane anion transport (chloride efflux) in POPC vesicles; conditions: for anionophore activity (in words): chloride efflux
# Description: The transmembrane anion transport activity of the compounds was explored in phospholipid (1-palmitoyl-2-oleoyl-sn-glycero-3-phosphocholine (POPC)) vesicles. Chloride efflux from chloride loaded vesicles was monitored using a chloride selective electrode. A solution of the studied compound in DMSO, usually 5 µL to avoid the influence of the organic solvent during the experiments, was added, and once the experiment was finished, a surfactant (Triton-X, 10% dispersion in water, 20 µL) was used to lyse the vesicles and release all the encapsulated chloride. This value was taken as 100% release and used as such. The experiments were repeated using different concentrations of the studied compounds and normalized chloride efflux at […] against the concentration of compound plotted. The data were then fitted with the Hill equation and an EC50 parameter, representing the concentration of compound eliciting 50% of chloride release was calculated. Assays in which the external medium was nitrate or bicarbonate were performed.
# [8] = tested on: epimastigotes of T. cruzi (CL strain, clone B5); design: method as in PMID 31210760; conditions: read-out: IC50 against epimastigotes of T. cruzi (earlier study); cited from earlier work
# [9] = tested on: Pseudomonas aeruginosa; conditions: cited from earlier work
# [10] = tested on: Enterococcus faecalis; conditions: cited from earlier work
# [11] = tested on: Escherichia coli; conditions: cited from earlier work
# [12] = external bicarbonate, read-out: EC50 (µM) HCO3–/Cl–
# [13] = external nitrate, read-out: EC50 (µM) NO3–/Cl–
compound,measurement,setting,value
Cc1nn(C)c(COc2ccc(N3CCN(S(=O)(=O)N(C)C)CC3)cc2)c1-c1cccc2c(CCCOc3cccc4ccccc34)c(C(=O)O)n(CCN3CCOCC3)c12 [Compound A-1210477],effect on the viability of different parasites (in words),[1],do not have an effect
Cc1c(-c2ccc(N3CCc4cccc(C(=O)Nc5nc6ccccc6s5)c4C3)nc2C(=O)O)cnn1CC12CC3CC(CC(C3)C1)C2 [Compound A-1331852],effect on the viability of different parasites (in words),[1],do not have an effect
Cc1c(-c2c(-c3ccc(F)o3)sc3ncnc(O[C@H](Cc4ccccc4OCc4ccnn4CC(F)(F)F)C(=O)O)c23)ccc(OCCN2CCN(C)CC2)c1Cl [Compound S63845],effect on the viability of different parasites (in words),[1],do not have an effect
CCCCn1cc(-c2cc(OC)c(/C=C3\N=C(C)C=C3C)[nH]2)nn1 [EH123],"Selectivity index (SI), Epimastigotes",[2]; IC50 for L-929 fibroblasts / IC50 for T. cruzi epimastigotes,0.86
same,IC50,[2],199 ± 49.9 µM
same,activity against the extracellular and replicative forms of T. cruzi (in words),[2],did not show detectable levels of trypanocidal activity
same,"cytotoxicity at 24 h, 16 µM",[3],3.72 ± 1.14%
same,IC50,[4],171.7 ± 0.5 µM
same,EC50,[5]; [12],1.91 µM
same,EC50,[5]; [13],0.024 µM
CCc1c(-c2ccc[nH]2)[nH]c(C=NC2CCCCCC2)c1C [KAR425],in vivo activity against P. yoelii infection (in words),[6],potent in vivo activity
CC/N=C/c1[nH]c(-c2ccc[nH]2)c(CC)c1C [MM5],IC50,[2],130 ± 34.7 µM
same,activity against the extracellular and replicative forms of T. cruzi (in words),[2],did not show detectable levels of trypanocidal activity
same,anionophore activity (in words),[7],very limited activity
same,EC50 (µM) HCO3–/Cl–,[7]; external bicarbonate,not active enough to calculate EC50 value
same,EC50 (µM) NO3–/Cl–,[7]; external nitrate,not active enough to calculate EC50 value
"CCCCCC1=C/C(=C/c2[nH]c(-c3ccc[nH]3)cc2OC)N=C1C [Prodigiosin, prodigiosin]",anionophore activity (in words),[7],most active anionophore
same,EC50,[7]; [12],0.06 µM
same,EC50,[7]; [13],0.002 µM
same,IC50,[8],≤ 800 nM
same,minimal inhibitory concentration (MIC),[9],8 µM
same,minimal inhibitory concentration (MIC),[10],2 µM
same,minimal inhibitory concentration (MIC),[11],2 µM
CC1(C)CCC(c2ccc(Cl)cc2)=C(CN2CCN(c3ccc(C(=O)NS(=O)(=O)c4ccc(N[C@H](CCN5CCOCC5)CSc5ccccc5)c(S(=O)(=O)C(F)(F)F)c4)cc3)CC2)C1 [navitoclax],effect on the viability of different parasites (in words),[1],do not have an effect
CC1(C)CCC(CN2CCN(c3ccc(C(=O)NS(=O)(=O)c4ccc(NCC5CCOCC5)c([N+](=O)[O-])c4)c(Oc4cnc5[nH]ccc5c4)c3)CC2)=C(c2ccc(Cl)cc2)C1 [venetoclax],effect on the viability of different parasites (in words),[1],do not have an effect
